Experimental data: PubChem BioAssay AID1320 (NMMLSC, 2008)
pEC50: −log10 of the molar value. Active and inactive are the calls of the source. No rule for the calls is given here.

Target: Bcl-2-related protein A1 (Homo sapiens) (UniProt Q16548)
Experiment: Bfl-1/Bim complex disruptors – biochemical, multiplexed, bead-based flow cytometry, dose response (AID 1320); as to percent span (inhibition): test concentration not given here
Settings: Bim peptide-Bfl-1 binding, fluorescence; for percent span (inhibition): active compounds read high

Sequence of Bcl-2-related protein A1 (Homo sapiens) (Q16548 whole entry, looked up): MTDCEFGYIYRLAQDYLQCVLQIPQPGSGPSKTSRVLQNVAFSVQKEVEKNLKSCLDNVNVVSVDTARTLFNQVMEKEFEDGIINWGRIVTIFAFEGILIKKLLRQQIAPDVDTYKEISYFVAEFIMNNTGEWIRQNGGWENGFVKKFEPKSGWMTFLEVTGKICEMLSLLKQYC

Row | SMILES | percent span (inhibition) | EC50 | pEC50
1 | COc1ccccc1-n1c(SCC(=O)N2CCc3ccccc32)nc2c(c1=O)SCC2 | inactive | – | –
2 | CC1(C)CC(NC(=O)COc2ccc([N+](=O)[O-])cc2)CC(C)(C)N1 | inactive | – | –
3 | COc1ccc(C2CC(=O)C3=C(C2)Nc2ccccc2NC3c2coc3ccccc3c2=O)cc1OC (stereo not drawn) | inactive | – | –
4 | O=C(Nc1nnc(C2CC2)s1)C1Cc2ccccc2CN1S(=O)(=O)c1ccccc1F (stereo not drawn) | inactive | – | –
5 | NCC(c1ccccc1)c1c[nH]c2ccccc12 (stereo not drawn) | inactive | – | –
6 | CCn1c(C)nc2cc(C(=O)N/N=C/c3ccc(O)c(O)c3O)ccc21 | inactive | – | –
7 | Cn1c(CCNC(=O)C2CCCCC2)nc2cc(NC(=O)c3cccs3)ccc21 | inactive | – | –
8 | CCCn1c(C)cc(-c2csc(N)n2)c1C | inactive | – | –
9 | CCOc1ccc(N2C(=O)C(Cl)=C(Nc3ccccc3O)C2=O)cc1 | inactive | – | –
10 | O=C(C1=NN[C@@H]2C(=O)N(c3cccc(F)c3)C(=O)[C@H]12)c1ccc2ccccc2n1 | inactive | – | –
11 | CC(C(=O)Nc1cc([N+](=O)[O-])ccc1Cl)N1CCN(c2ccc(O)cc2)CC1 (stereo not drawn) | inactive | – | –
12 | O=S1(=O)N=C(N(CCO)/N=C/c2ccccc2)c2ccccc21 | inactive | – | –
13 | CCOc1ccccc1NC(=O)CSc1nnc2ccc(-c3cccnc3)nn12 | inactive | – | –
14 | Cc1cc(NC(=O)CCCC(=O)N(CC(=O)NC2CCCCC2)c2ccccc2)no1 | inactive | – | –
15 | C(=C\c1ccccc1)/CSc1nnc(-c2ccccn2)n1Cc1ccco1 | inactive | – | –
16 | Nc1ccc(Nc2nc(-c3ccncc3)cs2)cc1 | inactive | – | –
17 | COP(=O)(CC(=O)O)c1ccccc1 (stereo not drawn) | inactive | – | –
18 | O=C(C[n+]1ccc(-c2nnc3n2CCC3)cc1)c1ccc(Cl)c(Cl)c1 | inactive | – | –
19 | O=C(c1ccc(CNS(=O)(=O)c2ccc(Br)cc2)cc1)N1CCCC1 | inactive | – | –
20 | O=C1CCc2cc(S(=O)(=O)NCCCC(=O)N3CCN(Cc4ccc5c(c4)OCO5)CC3)ccc2N1 | inactive | – | –
21 | C=CCSc1nc(N)c2c(C)c(C)sc2n1 | inactive | – | –
22 | CCOc1cc(NC(=S)NC)c(OCC)cc1NC(=O)c1ccc(OC)cc1 | inactive | – | –
23 | Clc1ccc2c(N/N=C/c3ccccc3Br)ccnc2c1 | – | inactive | –
24 | COc1ccc(NC(=O)c2ccc3c(c2)NC(=O)CS3)cc1S(=O)(=O)Nc1ccc(Br)cc1 | inactive | – | –
25 | O=C(NCCCN1CCN(CCCNC(=O)c2cc([N+](=O)[O-])ccc2Cl)CC1)c1cc([N+](=O)[O-])ccc1Cl | inactive | – | –

Row | SMILES | percent span (inhibition) | EC50 | pEC50
26 | CC(NCc1ccc(-c2ccccc2)cc1)C(O)c1ccccc1 (stereo not drawn) | inactive | – | –
27 | CCCCN(C(=O)CCC(=O)Nc1cc(C)on1)C(C(=O)NC(C)(C)C)c1cccc(OC)c1OC (stereo not drawn) | inactive | – | –
28 | COc1ccccc1NC(=O)CSc1ncn(-c2ccccc2)n1 | inactive | – | –
29 | CCOC(=O)CSc1nnc(-c2cccc(Cl)c2)n1CC | inactive | – | –
30 | Cc1cc(-c2csc(N)n2)c(C)n1CCC(C)C | inactive | – | –
31 | COc1ccc(NS(=O)(=O)c2cc(NC(=O)c3ccc(C)o3)ccc2N2CCCCC2)cc1 | inactive | – | –
32 | COCCCn1c(N)c(C(=O)Nc2sc3c(c2C(=O)OC)CCCC3)c2nc3ccccc3nc21 | inactive | – | –
33 | O=C(N/N=C/c1ccc(O)c(O)c1O)/C(=C/c1ccc([N+](=O)[O-])cc1)NC(=O)c1ccccc1 | – | – | 5.28
34 | Cc1nonc1NC(=O)CSc1nnc(-c2ccoc2C)n1C | inactive | – | –
35 | O=S1(=O)N=C(N(CCO)/N=C/c2ccncc2)c2ccccc21 | inactive | – | –
36 | CC(C)Cc1cc(-c2ccco2)c(C#N)c(N)n1 | inactive | – | –
37 | CCc1ccc(NC(=O)CC2NCCNC2=O)cc1 (stereo not drawn) | inactive | – | –
38 | Cc1ccc(OCC(=O)NCc2ccccn2)c(Br)c1 | inactive | – | –
39 | COc1ccc(C)cc1Nc1ccc(C(=O)O)cc1[N+](=O)[O-] | inactive | – | –
40 | O=C(CCl)Nc1cccc2ncccc12 | inactive | – | –
41 | CCOC(=O)c1nn(-c2ccccc2)c(C#N)c1N | inactive | – | –
42 | COCCCNc1nc(=S)[nH]c2cc(OC)c(OC)cc12 | inactive | – | –
43 | COc1ccc(/C=C2\SC(=O)NC2=S)cc1OC | inactive | – | –
44 | CCOc1ncccc1C(=O)OC(C)C(=O)Nc1ccc(CC)cc1 (stereo not drawn) | inactive | – | –
45 | CCOc1cc(/C=N/NC(N)=O)ccc1OCC(=O)Nc1ccc(C)c(C)c1 | inactive | – | –
46 | O=[N+]([O-])c1ccc(-c2cn(-c3ccc(Cl)cc3)c(=S)[nH]2)cc1 | inactive | – | –
47 | Cc1ccc(-n2[nH]c(C)c(/C=N/Nc3ccc([N+](=O)[O-])cc3[N+](=O)[O-])c2=O)cc1C | inactive | – | –
48 | COc1ccc(NC(=O)c2sccc2SCc2cccc(C(F)(F)F)c2)cc1 | inactive | – | –
49 | CC(C)(C)OC(=O)N1CCN(C(=O)[C@H](Cc2ccc(O)cc2)n2cc(CCO)nn2)CC1 | inactive | – | –
50 | CCOC(=O)C1(CC/C(C)=N\NC(N)=O)CC(C)(C)OC1=O (stereo not drawn) | inactive | – | –

Row | SMILES | percent span (inhibition) | EC50 | pEC50
51 | COc1ccccc1-n1c(-c2ccc(Cl)cc2)c[nH]c1=S | inactive | – | –
52 | Cc1ccc(C(=O)C(C(=O)/C=C/c2ccccc2)=C2SCCCS2)cc1 | inactive | – | –
53 | O=C(COc1ccccc1)Nc1ccc2c(c1)Cc1cc(NC(=O)COc3ccccc3)ccc1-2 | inactive | – | –
54 | Cc1ccc(-c2ccc(CCC(=O)O)n2NC(=O)c2cccs2)cc1 | inactive | – | –
55 | O=C(CSc1ccc2nnc(-c3ccccn3)n2n1)Nc1nccs1 | inactive | – | –
56 | CCN1CCN(c2cc(C)c3cc(NC(=S)N4CCCCC4)ccc3n2)CC1 | inactive | – | –
57 | COc1cc(NC(=O)c2ccc3c(c2)OCO3)ccc1NC(=O)c1ccco1 | inactive | – | –
58 | O=C(NC1=NCCS1)NC12CC3CC(CC(C3)C1)C2 | inactive | – | –
59 | COc1ccc(NC(=O)COc2ncnc3ccccc23)cc1S(=O)(=O)N1CCOCC1 | inactive | – | –
60 | NC(=O)c1c(NC(=O)C2CCCO2)sc2c1CCCCC2 (stereo not drawn) | inactive | – | –
61 | O=C1NC(=S)S/C1=C/c1ccc(N2CCOCC2)o1 | inactive | – | –
62 | Cc1noc(C)c1CN1C(=O)NC(Cc2ccccc2)(Cc2ccccc2)C1=O | inactive | – | –
63 | CN(C(=O)NC1CCCCC1)c1ccccc1 | inactive | – | –
64 | O=C(NCc1ccccc1)C(=O)Nc1nc(C23CC4CC(CC(C4)C2)C3)cs1 | inactive | – | –
65 | CSc1nnc2ccc(-c3cccs3)nn12 | inactive | – | –
66 | c1ccc(-c2nc(N3CCCCCC3)c3ccccc3n2)nc1 | inactive | – | –
67 | Cc1ccc2c(c1)c(C)c(C)n2CC(O)Cn1nc(C)c(Br)c1C (stereo not drawn) | inactive | – | –
68 | N=C1C(c2nc3ccccc3s2)=C(O)CN1Cc1ccccc1 | inactive | – | –
69 | CNCc1ccccc1Sc1cc(O)ccc1O | inactive | – | –
70 | c1ccc2c(N3CCOCC3)nc(N3CCOCC3)nc2c1 | inactive | – | –
71 | Cc1cc(C)c2nc3nc(C)cc(C)c3c(N)c2c1 | inactive | – | –
72 | O=C(Nc1nccs1)c1ccc(COc2ccc(F)cc2)o1 | inactive | – | –
73 | c1csc(C2=Nn3c(nnc3-c3ccncc3)SC2)c1 | inactive | – | –
74 | CN(Cc1ccccc1)c1nc2c(c(=O)[nH]c(=O)n2C)n1C | inactive | – | –
75 | CNC(=O)c1sc(-c2ccccn2)nc1C | inactive | – | –

Row | SMILES | percent span (inhibition) | EC50 | pEC50
76 | CCOC(=O)C1(Cc2cccc(OC)c2)CCN(Cc2cccc(OC)c2OC)CC1 | inactive | – | –
77 | Cc1nc(NC(=O)CC(C)C)sc1-c1csc(Nc2ccc(Cl)cc2)n1 | inactive | – | –
78 | O=C(Oc1ccc(-c2cnc3ccccc3n2)cc1)c1cccc([N+](=O)[O-])c1 | inactive | – | –
79 | O=C1c2ccccc2-c2onc3ccc(NCCCn4ccnc4)c1c23 | inactive | – | –
80 | COc1cc2[nH]c(=S)nc(NCCCOC(C)C)c2cc1OC | inactive | – | –
81 | O=C1C=C(Nc2ccccc2)C(=O)c2ccccc21 | inactive | – | –
82 | C/C(=N\NC(=O)Cc1cccn1C)c1ccc2ccccc2c1 | inactive | – | –
83 | COc1ccc(OC)c(NC(=O)COC(=O)c2cc3c(s2)CCC3)c1 | inactive | – | –
84 | Cc1cc(-c2nnc3n2N=C(c2ccc(-c4ccccc4)cc2)CS3)n[nH]1 | inactive | – | –
85 | CCCCNC(=O)c1ccc2nc(-c3ccco3)c(-c3ccco3)nc2c1 | inactive | – | –
86 | COc1ccc(C(=O)Nc2ccc(C(=O)OCC(=O)c3cccc4ccccc34)cc2)cc1 | inactive | – | –
87 | CC1C=CCC2C(=O)N(c3ccc(OC(=O)c4cccs4)cc3)C(=O)C12 (stereo not drawn) | inactive | – | –
88 | Cc1cc(Cl)ccc1N=c1ssnc1Cl | inactive | – | –
89 | CCOC(=O)/C(=C\c1ccc(Cl)cc1)c1nc2sc(C)c(C)c2c(=O)[nH]1 | inactive | – | –
90 | CCOC(=O)c1ccc(Nc2nc(C(=O)OCC)nc3ccccc23)cc1 | inactive | – | –
91 | O=C(O)c1ccc(NS(=O)(=O)c2ccc3c(c2)C(=O)c2ccccc2C3=O)cc1 | inactive | – | –
92 | Cc1ccc(-c2cc(-c3ccccc3Cl)c(C#N)c(N)n2)o1 | inactive | – | –
93 | COc1ccccc1C1=Nc2cccc3cccc(c23)N1 | inactive | – | –
94 | CC1(C)Cc2c(ccc3ccccc23)/C(=C/C(=O)N2CCCCC2)N1 | inactive | – | –
95 | CN1C2C=C3C(C#N)=C(N)C(C#N)(C#N)[C@@H](c4ccsc4)[C@@H]3C1CC2 (stereo partly drawn) | inactive | – | –
96 | COC(=O)c1ccc(C)c(NC(=O)CCNC(=O)c2ccc([N+](=O)[O-])cc2)c1 | inactive | – | –
97 | Fc1ccccc1-n1cc(-c2ccccc2)[nH]c1=S | inactive | – | –
98 | CCOc1ccc(CNc2ccc(N3CCCC3)cc2)cc1 | inactive | – | –
